Results reported in patent publication US20120196858A1, “METHOD OF PROMOTING APOPTOSIS AND INHIBITING METASTASIS” (Poniard Pharmaceuticals ,Inc., priority 2009, published 2012).
Where two headings read alike, the source gives them in different places.

How the values were obtained:
[1] = system: ID8 ovarian carcinoma cells; assay: Intraperitoneal ID8 ovarian carcinoma tumor growth in C57Bl6 mice; type: in vivo, C57B16 mice
Experimental: Mouse tumor studies: Six to eight week old female C57B16 and BALB/c mice were obtained from Harlan Laboratories (Indianapolis, Ind.) and housed in pathogen-free conditions, according to the guidelines of the Association for the Assessment and Accreditation for Laboratory Animal Care, International. All in vivo studies were carried out under an approved institutional experimental animal care and use protocol. Growing tumor cells were harvested by limited trypsinization, washed in PBS, and counted using a ViCell XR (Beckman) prior to injection. Cell viability as measured by trypan blue exclusion was >95%. For subcutaneous tumor growth, 1×10^6 mCherry-labeled 4T1 cells in 100 μl PBS were injected into the hindflank of Balb/C mice. […] Control animals received PEG400:PBS injections and at 13 days, tumors were imaged in situ using an Olympus OV100 Intravital Fluorescence Molecular Imaging System, tumors were excised and weighed, half was frozen in OCT, and half was solubilized in protein lysis buffer for FAK phosphorylation analyses. For ID8 ovarian carcinoma tumor growth, 0.8 mL of 1×10^7 ID8 cells in PBS was intraperitoneal injected into C57B16 mice. […] Administration continued ad libitum for 30 days after which mice were euthanized, ascites fluid collected, cells obtained by centrifugation (2000 rpm for 5 min), cell volume measured by pipet, and then solubilized in protein lysis buffer for immunoblotting analyses.

[2] = biological target: T1, FAK Tyr-397 phosphorylation (Mus musculus, UniProt P34152); assay: Anti-phospho-specific immunoblotting of FAK pY397 in 4T1 cells; type: cell-based, murine
T1 construct: endogenous in cells; host or cells: 4T1 murine mammary carcinoma cells
Excerpt: (§1) Immunoblotting: Protein extracts of cells were made using lysis buffer containing 1% Triton X-100, 1% sodium deoxycholate, and 0.1% SDS and were separated by 4-12% SDS-PAGE (sodium dodecyl sulfate polyacrylamide gel electrophoresis) and sequential immunoblotting performed as described in Mitra S K, Lim S T, Chi A, Schlaepfer D D. Intrinsic focal adhesion kinase activity controls orthotopic breast carcinoma metastasis via the regulation of urokinase plasminogen activator expression in a syngeneic tumor model. Oncogene 2006; 25:4429-40. Relative expression levels and phospho-specific antibody reactivity were measured by densitometry analyses of blots using Image J (version 1.42q). Inhibition of FAK and p130Cas tyrosine phosphorylation was quantified by calculating the ratio of pY397 FAK protein to total FAK. Similar analyses were performed for p130Cas using pY410 p130Cas and total p130Cas blot data.

[3] = Pharmacokinetic (PK) evaluation in mice; type: in vivo, Balb/c mice
Experimental: Blood samples were collected via terminal heart puncture at 0.5, 1, 2, 4, 8, 12, 24 and 48 h for p.o. administration and 0.083, 0.25, 0.5, 1, 2, 4, 8, 12, 24 and 48 h for i.p. and i.v. administration. 3 mice per time point were used. For ad libitum administration, blood samples were collected after 7 days using five mice per group. Samples were collected in tubes containing 0.05 ml 0.5 M EDTA, centrifuged at 900×g for 15 min at room temperature, and the plasma collected. PND-1186 content was determined by high-performance liquid chromatography (HPLC) and mass spectroscopy analyses (see Supplemental Methods).

[4] = system: p130Cas tyrosine phosphorylation (pY249, pY410); assay: Phospho-specific immunoblotting of p130Cas in 4T1 cells; type: cell-based, murine
Excerpt: as §1

[5] = system: 4T1 cells; assay: Time lapse scratch-wound closure motility assay; type: cell-based
Experimental: Cell migration assays: Serum-stimulated chemotaxis using Millicell (12 mm diameter with 8 μm pores; Millipore) chambers were performed as described previously^49. Both sides of membrane were coated with fibronectin (10 μg/ml) and chemotaxis was stimulated by addition of 10% FBS to the lower chamber. Data points represent cell counts (9 fields) from three migration chambers from at least two independent experiments. For scratch-wound closure motility assays, cells were seeded onto fibronectin-coated (10 μg/ml) glass bottom 12 well plates (MatTek) and serum starved (0.5% FBS) for 16 h. Cells were wounded with a pipette tip, washed with phosphate-buffered salin (PBS), and replenished with 10% FBS media with or without FAK inhibitor (1 μM). Time-lapse series was obtained by acquiring images at 10 min intervals for up to 22 h, at 37° C. with humidity and CO2 regulation using a 10× objective on an automated stage (Olympus IX81). Cell trajectories and distance traveled were measured by tracking nucleus position over time using Image J.

[6] = system: MDA-MB-231 cells; assay: Experimental metastasis assay (tail vein injection); type: in vivo, nude mice; settings: 150 mg/kg p.o. pre-administered; 1 and 6 h
Experimental: To determine experimental metastasis burden, lungs were removed 1 and 6 h post cell injection, rinsed in PBS, and dorsal plus ventral fluorescent images acquired using OV100 imaging. A common threshold for mCherry fluorescence was set for all images and the total fluorescent lung area was calculated using Image J.

[7] = system: caspase 3 cleavage in 4T1 cells; assay: Cleaved caspase 3 immunoblotting of cell lysates; type: cell-based, murine; settings: 24 h
Excerpt: as §1, with “Similar analyses were performed for p130Cas using pY410 p130Cas and total p130Cas blot data.” left out
Cell pellets were resuspended in 300 p. […] Samples were analyzed by flow cytometry (FACSCalibur, Becton-Dickinson) and cell cycle analyses were performed by ModFit LT3.2 software (Verity software house). Hypodiploid DNA content as a measure of cell apoptosis was detected by PI staining as described ^29. […] Apoptosis was calculated to be the percent of annexin V-positive cells. In the soft agar assays, apoptosis was quantified by visual inspection of at least 200 cells and was defined as the appearance of membrane blebbing or cell shrinkage. […]

[8] = 0.5 mg/ml ad libitum, 30 treatment days

T1 sequence (P34152 whole entry): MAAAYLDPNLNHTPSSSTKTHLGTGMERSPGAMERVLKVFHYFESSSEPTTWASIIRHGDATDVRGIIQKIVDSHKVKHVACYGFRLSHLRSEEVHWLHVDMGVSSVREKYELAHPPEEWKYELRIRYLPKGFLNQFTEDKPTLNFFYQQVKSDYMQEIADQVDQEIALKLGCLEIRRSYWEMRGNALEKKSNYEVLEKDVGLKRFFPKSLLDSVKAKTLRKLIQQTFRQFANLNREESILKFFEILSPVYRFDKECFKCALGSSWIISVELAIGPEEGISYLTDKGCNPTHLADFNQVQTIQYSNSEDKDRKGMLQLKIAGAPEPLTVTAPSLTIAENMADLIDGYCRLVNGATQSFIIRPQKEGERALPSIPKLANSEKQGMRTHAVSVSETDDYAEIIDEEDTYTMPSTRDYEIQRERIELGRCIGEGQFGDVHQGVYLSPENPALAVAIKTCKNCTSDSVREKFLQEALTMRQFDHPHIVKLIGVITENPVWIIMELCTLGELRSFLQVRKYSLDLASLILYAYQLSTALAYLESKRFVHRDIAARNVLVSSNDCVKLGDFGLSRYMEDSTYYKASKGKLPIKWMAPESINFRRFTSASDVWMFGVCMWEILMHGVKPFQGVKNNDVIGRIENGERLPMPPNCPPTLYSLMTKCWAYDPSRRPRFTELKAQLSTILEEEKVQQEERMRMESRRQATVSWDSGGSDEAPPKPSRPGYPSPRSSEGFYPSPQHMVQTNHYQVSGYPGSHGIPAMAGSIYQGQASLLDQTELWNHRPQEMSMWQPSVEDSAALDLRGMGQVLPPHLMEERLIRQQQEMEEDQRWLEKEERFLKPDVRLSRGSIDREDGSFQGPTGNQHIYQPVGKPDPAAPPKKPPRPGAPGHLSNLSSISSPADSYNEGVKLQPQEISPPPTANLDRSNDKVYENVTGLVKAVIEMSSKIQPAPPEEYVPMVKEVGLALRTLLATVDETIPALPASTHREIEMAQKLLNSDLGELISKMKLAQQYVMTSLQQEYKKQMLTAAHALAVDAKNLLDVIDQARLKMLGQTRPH

CNC(=O)c1ccccc1Nc1cc(Nc2ccc(N3CCOCC3)cc2OC)ncc1C(F)(F)F [PND-1186]
inhibition of FAK pY397 in ascites cells ([1]; 0.5 mg/ml ad libitum vs 5% sucrose): > 2 fold
ascites-associated cells [1, 8]: lower number of ascites-associated cells
swollen abdomens [1, 8]: did not exhibit swollen abdomens
tumor nodules within the peritoneal space ([1]; 0.5 mg/ml ad libitum, dsRed imaging): significantly fewer tumor nodules
adverse effects and body weight ([1]; 0.5 mg/ml in 5% sucrose ad libitum): No adverse effects and no body weight loss
tumor burden, caspase 3 cleavage, tumor TUNEL staining ([1]; 0.5 mg/ml in drinking water of mice, tumor model not named at the place): decreased tumor burden, increased caspase 3 cleavage, and elevated tumor TUNEL staining
FAK pY397 phosphorylation in 4T1 spheroids ([2]; 0.1 μM, 3D spheroids): potently inhibited
FAK pY397 phosphorylation, adherent and suspended cells ([2]; 0.1 μM, 24 h): sufficient to inhibit FAK pY397 phosphorylation
maximal reduction of FAK pY397 phosphorylation ([2]; 4T1 cells, 0.1 to 1.0 μM, 1 h): ~80%
CSS ([3]; 0.5 mg/ml ad libitum, mice): 1.16 µM
AUC(0-inf) ([3]; 2 mg/kg i.v., mice): 6,960 ng · h/mL
Cl ([3]; 2 mg/kg i.v., mice): 4.78 mL/min/kg
Vd ([3]; 2 mg/kg i.v., mice): 0.714 L/kg
t1/2 ([3]; 2 mg/kg i.v., mice): 1.72 h
AUC(0-inf) ([3]; 30 mg/kg i.p., mice): 32,500 ng · h/mL
Cmax ([3]; 30 mg/kg i.p., mice): 34.8 µM
TMAX ([3]; 30 mg/kg i.p., mice): 0.25 h
t1/2 ([3]; 30 mg/kg i.p., mice): 2.27 h
AUC(0-inf) ([3]; 100 mg/kg i.p., mice): 147,000 ng · h/mL
Cmax ([3]; 100 mg/kg i.p., mice): 117 µM
TMAX ([3]; 100 mg/kg i.p., mice): 0.50 h
t1/2 ([3]; 100 mg/kg i.p., mice): 2.65 h
maximal plasma level ([3]; 150 mg/kg oral, by 4 h): ~14 µM
sustained plasma level ([3]; 150 mg/kg oral, for 12 h): above 3 μM
AUC(0-inf) ([3]; 150 mg/kg p.o., mice): 77,400 ng · h/mL
Cmax ([3]; 150 mg/kg p.o., mice): 14 µM
TMAX ([3]; 150 mg/kg p.o., mice): 4.00 h
t1/2 ([3]; 150 mg/kg p.o., mice): 2.15 h
AUC(0-inf) ([3]; Balb/c, mouse, plasma, oral, 0.5 mg/kg, 0.5 mg/ml ad libitum, mice, read-out: AUC(0-inf)): 13.1 ng·h/mL
bioavailability (% F) ([3]; i.p. and p.o. dosing): 14.8 to 42.2%
terminal half lives (t1/2) ([3]; i.p. and p.o. dosing): 2.15 to 2.65 h
dose dependence of plasma concentrations, Cmax and AUC(0-inf) ([3]; mouse, in vivo): increased in a linear fashion as a function of dose
p130Cas pY249 phosphorylation in 4T1 spheroids ([4]; 0.1 μM, 3D spheroids): potently inhibited
p130Cas pY410 phosphorylation in 4T1 spheroids ([4]; 0.1 μM, 3D spheroids): potently inhibited
p130Cas pY249 phosphorylation ([4]; adherent 4T1 cells, 1 h, PND-1186 to 1 μM): did not affect
cell detachment or death ([5]; 1 μM over 22 h): No evidence of 4T1 cell detachment or death
wound closure ([5]; 1 μM, 22 h (DMSO 89%)): 40%
accumulation of tumor cells in the lungs [6]: significantly inhibited the accumulation of tumor cells in the lungs
cleaved caspase 3, adherent cells [7]: not detectable
cleaved caspase 3, suspended cells [7]: increased in PND-1186-treated suspended cells (maximal at 0.4 μM)
